# Key:
# [1] = target: T1, PD-L1 (Homo sapiens (Human), UniProt Q9NZQ7); experiment: Indirect PD-L1 internalization assay using MDA-MB231 cells; assay type: cell-based; conditions: 16 hrs
# Protocol: For the indirect analysis, cell surface PD-L1 was detected with fluorescently labeled anti-PD-L1 (CD274) antibodies. CHO-PD-L1 cells were seeded at 2×10^5 cells per well of a 6-well tissue culture plate in 2 ml of F-12 medium supplemented with 10% FBS, 200 μg/ml Hydromycin and 250 μg/ml Geneticin and allowed to attach for 24 hours. After 24 hours, test compounds were added to a final concentration of 1 uM from DMSO stocks, and an equal volume of DMSO was added to control wells. Cells were incubated in the presence of a compound for 16 hours at 37° C., 5% CO2. Prior to analysis, the cells were washed twice with 1 mL of Ca, Mg free PBS and detached with 1 mL of lift buffer (10 mM Tris, 140 mM NaCl, 1 mM EDTA). The collected cells were stained with PE-conjugated mouse anti-human CD274 antibody according to manufacturer instructions: BD Pharmigen #557924 Clone MIH1 (20 μL of Ab per 100 uL of BSA based staining buffer) or eBioscience #12-5983 Clone MIH1 (2 μL per 100 ul of BSA based staining buffer). Cells were incubated at room temperature for 20 minutes, protected from light, washed twice with Ca, Mg free PBS and resuspended in 400 μL of PBS. Antibody binding was detected by flow cytometry using an Accuri C6 instrument. Isotype control antibody-stained cells were used as a negative control. To test that lack of PD-L1 cell surface staining was not due to inhibition of detection antibody binding by the test article, an acid-wash procedure was used. After 16 hours of incubation in the presence of a compound or anti-PD-L1 antibody, the remaining, non-internalized a compound or antibody was stripped from the cell surface using freshly prepared, ice-cold acid stripping buffer (DMEM/0.2% BSA, pH 3.5). Cells were washed in this manner three times for 5 minutes each on a shaking platform. The stripped cells were then washed with ice-cold PBS three times for 5 minutes each with gentle shaking, harvested with lift buffer and stained with PE-mouse anti human CD274 antibodies as described.
# For the indirect method of assessing PD-L1 internalization using the MDA-MB231 breast cancer cell line, the procedure for the assays was the same as described for the CHO-PD-L1 cells with the following changes. MDA-MB231 were seeded at 2×10^5 cells per well of a 6-well tissue culture plate in 2 ml of RPMI1640 medium supplemented with 10% FBS. After compound treatment for 16 hrs, the cells were treated with the stripping buffer (DMEM/0.2% BSA, pH 3.5) prior to staining with the anti-CD274 antibodies as described.
# [2] = target: T1, PD-L1; experiment: Indirect whole blood PD-L1 internalization assay; assay type: cell-based; conditions: interferon γ, 18 hours, CD14+ gated
# Protocol: To determine PD-L1 internalization in human whole blood, normal human blood (Biological Specialty Corp, Colmar. Pa.) was incubated in the presence or absence of a concentration range of test compounds and 1 ng/ml human interferon γ (R&D Systems Inc. Minn. Minn.) in a 96 well round bottom plate (Corning, Corning, N.Y.) for 18 hours at 37° C. Blood was then transferred into 96 well “2 ml Assay Block” (Corning, Corning N.Y.) and stained with PD-L1 (MIH1, eBioscience; or BD Biosciences San Jose, Calif.), CD14 (Life Technologies, Carlsbad, Calif.) for 30 minutes in the dark at room temperature. Whole Blood/red cells were lysed/fixed (lysis buffer BD Biosciences) for 5 minutes at 37° C. in dark and then centrifuged at 1600 RPM for 5 minutes and cells were transferred into 96 well round bottom plates (Corning). Cells were gated on CD14+ (BD Biosciences) and PD-L1 expression determined by mean fluorescence intensity (MFI) (BD LSRFortessa™ X-20). IC50 determination was performed by fitting the curve of compound percent inhibition versus the log of the compound concentration using the GraphPad Prism 7.0 software.
# [3] = target: PD-1/PD-L1 (Homo sapiens (Human), UniProt Q9NZQ7); experiment: PD-1/PD-L1 binding assay (Alphascreen)
# Sequence of PD-1/PD-L1 (Q9NZQ7 19-238): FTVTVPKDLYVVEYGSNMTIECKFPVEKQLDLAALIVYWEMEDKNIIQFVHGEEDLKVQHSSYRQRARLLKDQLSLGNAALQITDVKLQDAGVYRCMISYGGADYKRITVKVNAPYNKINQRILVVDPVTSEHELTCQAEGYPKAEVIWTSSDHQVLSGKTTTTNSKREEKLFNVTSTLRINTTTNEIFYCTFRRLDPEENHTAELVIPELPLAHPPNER
# Protocol: Binding assays were conducted in a low volume white 384-well polystyrene plate in a final volume of 20 μL. Compounds to be analyzed were first serially diluted in DMSO and added to the plate wells before the addition of other reaction components. The final concentration of DMSO in the assay was 1%. The assay was carried out at 25° C. in the PBS buffer (pH 7.4) with 0.05% Tween-20 and 0.1% BSA. Recombinant human PD-L1 protein (19-238) with a His-tag at the C-terminus was purchased from AcroBiosystems (PD1-H5229). Recombinant human PD-1 protein (25-167) with Fc tag at the C-terminus was also from AcroBiosystems (PD1-H5257). PD-L1 and PD-1 proteins were diluted in the assay buffer (final concentration—0.67 and 0.20 nM respectively) and 10 μL was added to the plate well. Plates were centrifuged and proteins were preincubated with compounds for 40 minutes. The incubation was followed by the addition of 10 μL of assay buffer supplemented with Alphascreen Ni chelate donor beads (PerkinElmer—AS101D) and Protein A Acceptor beads (PerkinElmer—6760137) at final concentration 2.5 μg/mL under reduced light. After plate sealing, the plate was incubated in the dark at room temperature for 120 minutes before reading on a PHERAstar FS plate reader (BMG Labtech). IC50 determination was performed by fitting the curve of percent control activity versus the log of the compound concentration using the GraphPad Prism 5.0 software.
# [4] = test system: IRF3 activation in PD-L1 low HEK293T STING reporter cell line; experiment: IRF3 activation in HEK293T STING reporter cells, low PD-L1; assay type: cell-based, human; conditions: 20 hours, read-out: IRF Activation EC50 (nM), Low PD-L1
# Protocol: (§1) HEK293T STING reporter cell line was purchased from Invivogen and expressed low level of PD-L1. This cell line was then engineered at Incyte Research Institute to overexpress human PD-L1. Both PD-L1 high and PD-L1 low HEK293T cell lines were plated at 100,000 cells/100 μL/well in 10% fetal calf serum-containing DMEM culture medium in a 96-well flat bottom plate. Serial dilutions of PD-L1 small molecule-conjugated STING agonists were then added to the corresponding wells, and incubated for 20 hours at 37° C. In a competition study setting, 1 μM of a PD-L1 small molecule was added in the corresponding wells to compete with the binding of PD-L1 small molecule-conjugated STING agonists. At the end of the incubation, the culture supernatants were carefully removed from each well, and the amount of IRF3 activation was determined by adding Quanti-Blue substrate in accordance with the manufacturer's protocol.
# (§2) 293T-Dual hSTING-R232 (ISG/KI-IFNb) cells that were generated from 293T-Dual Null (ISG/KI-IFNb) cells by stable transfection of the R232 isoform of human STING were purchased from Invivogen (Invivogen #293d-r232).
# (§3) This cell line expresses an ISRE-inducible SEAP (secreted embryonic alkaline phosphatase) reporter construct, which monitors the activation of interferon regulatory factor (IRF) and its binding to ISRE (IFN-stimulated response elements). These reporter cells express low level of PD-L1. Human PD-L1 was then overexpressed in these cells through stable transfection.
# (§4) These 293T-Dual hSTING-R232 reporter cells as well as293T-Dual hSTING-R232 reporter cells overexpressing huPD-L1 were treated with various concentrations of STING compounds for 20 hours. After 20 hours, interferon regulatory factor (IRF) activity was assessed by measuring SEAP levels in the supernatant using QUNTI-Blue. EC50 values were generated by curve fit in Prism software.
# [5] = target: T1, PD-L1; experiment: PD-L1 surface levels on HEK293T STING reporter cells, high PD-L1; assay type: cell-based
# Protocol: To determine PD-L1 expression on HEK cells after treatment of PD-L1-small molecule conjugated STING agonists, cells were harvested at 20 hours post-treatment. Single cell suspensions were then stained with phycoerythrin-conjugated anti-PD-L1 antibody (BD Bioscience), and the PD-L1 expression were then analyzed by flow cytometry. Mean fluorescence intensity was used as the relative level of surface PD-L1 expression on cells (FIG. 1 and Table 6).
# Also, cells were stained with PE-conjugated anti-human PD-L1 antibody to determine surface PD-L1 expression. Cell acquisition was performed on BD LSRFortessa X-20 (BD Biosciences). Data was analyzed using FlowJo software. IC50 values were calculated using Prism Software.
# [6] = test system: IRF3 activation in PD-L1 high HEK293T STING reporter cell line; experiment: IRF3 activation in HEK293T STING reporter cells, high PD-L1; assay type: cell-based, human; conditions: high PD-L1 cells, 20 hours; read-out: IRF Activation EC50 (nM), High PD-L1
# Protocol: as §1, §2, §3, §4
# T1 sequence (Q9NZQ7 19-290): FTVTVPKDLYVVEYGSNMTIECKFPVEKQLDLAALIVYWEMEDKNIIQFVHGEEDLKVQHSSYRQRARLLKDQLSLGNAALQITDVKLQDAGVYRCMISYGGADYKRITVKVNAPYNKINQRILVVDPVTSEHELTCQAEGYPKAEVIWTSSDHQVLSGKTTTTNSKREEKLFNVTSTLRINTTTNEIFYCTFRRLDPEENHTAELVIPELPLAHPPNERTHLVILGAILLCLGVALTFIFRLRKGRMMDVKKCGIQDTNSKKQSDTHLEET
SMILES,IC50 [1] [nM],IC50 [2] [nM],IC50 [3] [nM],"IC50 ([5]; high PD-L1 cells, 20 hours, read-out: PD-L1 Internalization IC50 (nM), High PD-L1) [nM]",EC50 [4] [nM],IC50 [5] [nM],EC50 [6] [nM]
Cc1c(Nc2nccc3cc(CN4CC[C@@H](O)C4)cnc23)cccc1-c1cccc(-c2nc3cc(CN4CC[C@@H](C(=O)O)C4)cc(C#N)c3o2)c1C [Example P15],–,100 to 1000,0.1 to 1,–,–,–,–
CCn1nc(C)cc1C(=O)Nc1nc2cc(C(N)=O)cc(OC)c2n1C/C=C/Cn1c(NC(=O)c2cc(C)nn2CC)nc2cc(C(N)=O)cc(OCCCNC(=O)[C@H](CC(=O)O)NC(=O)[C@H](CC(=O)O)NC(=O)[C@H](CC(=O)O)NC(=O)[C@H](CCCNC(=N)N)NC(=O)CCCN3CCc4c(nc(C(=O)Nc5cccc(-c6cccc(NC(=O)c7nc8c(n7C)CCN(CCCC(=O)O)C8)c6Cl)c5Cl)n4C)C3)c21 [Example 17],–,–,–,–,50 to 200,< 50,< 50
CCn1nc(C)cc1C(=O)Nc1nc2cc(C(N)=O)cc(OC)c2n1C/C=C/Cn1c(NC(=O)c2cc(C)nn2CC)nc2cc(C(N)=O)cc(OCCCNC(=O)[C@H](CC(=O)O)NC(=O)[C@H](CC(=O)O)NC(=O)[C@H](CCCCN)NC(=O)[C@H](CC(=O)O)NC(=O)CCCN3CCc4c(nc(C(=O)Nc5cccc(-c6cccc(NC(=O)c7nc8c(n7C)CCN(CCCC(=O)O)C8)c6Cl)c5Cl)n4C)C3)c21 [Example 18],–,–,–,–,< 50,< 50,< 50
CCn1nc(C)cc1C(=O)Nc1nc2cc(C(N)=O)cc(OC)c2n1C/C=C/Cn1c(NC(=O)c2cc(C)nn2CC)nc2cc(C(N)=O)cc(OCCCNC(=O)[C@H](CC(=O)O)NC(=O)[C@H](CC(=O)O)NC(=O)CCCN3CCc4c(nc(C(=O)Nc5cccc(-c6cccc(NC(=O)c7nc8c(n7C)CCN(CCCC(=O)O)C8)c6Cl)c5Cl)n4C)C3)c21 [Example 10],–,–,–,< 50,50 to 200,–,< 50
CCn1nc(C)cc1C(=O)Nc1nc2cc(C(N)=O)cc(OC)c2n1C/C=C/Cn1c(NC(=O)c2cc(C)nn2CC)nc2cc(C(N)=O)cc(OCCCNC(=O)[C@H](CC(=O)O)NC(=O)[C@H](CC(=O)O)NC(=O)[C@H](CC(=O)O)NC(=O)[C@H](CC(=O)O)NC(=O)[C@H](CC(=O)O)NC(=O)CCCN3CCc4c(nc(C(=O)Nc5cccc(-c6cccc(NC(=O)c7nc8c(n7C)CCN(CCCC(=O)O)C8)c6Cl)c5Cl)n4C)C3)c21 [Example 13],–,–,–,–,50 to 200,< 50,< 50
CCn1nc(C)cc1C(=O)Nc1nc2cc(C(N)=O)cc(OCCCNC(=O)OCCNC(=O)[C@H](CC(=O)O)NC(=O)[C@H](CC(=O)O)NC(=O)[C@H](CCCNC(=N)N)NC(=O)[C@H](CC(=O)O)NC(=O)CCCN3CCc4c(nc(C(=O)Nc5cccc(-c6cccc(NC(=O)c7nc8c(n7C)CCN(CCCC(=O)O)C8)c6Cl)c5Cl)n4C)C3)c2n1C/C=C/Cn1c2nc(-c3cc(C)nn3CC)ncc2c2cc(C(N)=O)cc(OC)c21 [Example 24],–,–,–,–,< 50,< 50,< 50
CCn1nc(C)cc1C(=O)Nc1nc2cc(C(N)=O)cc(OC)c2n1C/C=C/Cn1c(NC(=O)c2cc(C)nn2CC)nc2cc(C(N)=O)cc(OCCCNC(=O)[C@H](CC(=O)O)NC(=O)[C@H](CCCNC(=N)N)NC(=O)[C@H](CC(=O)O)NC(=O)[C@H](CC(=O)O)NC(=O)CCCN3CCc4c(nc(C(=O)Nc5cccc(-c6cccc(NC(=O)c7nc8c(n7C)CCN(CCCC(=O)O)C8)c6Cl)c5Cl)n4C)C3)c21 [Example 16],–,–,–,–,< 50,< 50,< 50

# The next lines start with results.
IC50 [1] [nM],IC50 [2] [nM],IC50 [3] [nM],"IC50 ([5]; high PD-L1 cells, 20 hours, read-out: PD-L1 Internalization IC50 (nM), High PD-L1) [nM]",SMILES,EC50 [4] [nM],IC50 [5] [nM],EC50 [6] [nM]
< 10,< 100,0.1 to 1,–,Cc1c(Nc2nccc3cc(CN4CC[C@@H](O)C4)cnc23)cccc1-c1cccc(-c2nc3cc(CC4CC[C@@H](C(=O)O)C4)cc(C#N)c3o2)c1C (stereo partly shown) [Example P14],–,–,–
< 10,< 100,0.1 to 1,–,Cc1c(NC(=O)c2nc3c(n2C)CCN(C[C@H](C)O)C3)cccc1-c1cccc(NC(=O)c2nc3c(n2C)CCN(C)C3)c1Cl [Example P8],–,–,–
–,< 100,0.1 to 1,–,Cc1c(NC(=O)c2nc3c(n2C)CCN(C2CCOCC2)C3)cccc1-c1cccc(NC(=O)c2nc3c(n2C)CCN(C)C3)c1Cl [Example P9],–,–,–
–,100 to 1000,0.1 to 1,–,Cc1c(Nc2nccc3cc(CN4CC[C@@H](O)C4)cnc23)cccc1-c1cccc(Nc2nccc3cc(CN4CC[C@@H](C(=O)O)C4)cnc23)c1C [Example P18],–,–,–
–,100 to 1000,0.1 to 1,–,Cc1c(Nc2nccc3cc(CN4CC[C@@H](O)C4)cnc23)cccc1-c1cccc(-c2nc3cc(CN4CC(C(=O)O)C4)cc(C#N)c3o2)c1C [Example P20],–,–,–
–,< 100,0.1 to 1,–,Cc1c(-c2nc3cc(CN4CC[C@@H](C(=O)O)C4)cc(C#N)c3o2)cccc1-c1cccc(NC(=O)c2nc3c(n2C)CCN(C)C3)c1Cl [Example P22],–,–,–

# Reference: patent US11596692B1 (Incyte Corporation, priority 2018, dated 2023)
